In PubChem BioAssay (NCI):
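In this assay, cells in 96-well plates receive the compound at five concentrations for 48 hours. Endpoints are linearly interpolated between the surrounding concentrations. GI50: concentration for 50% inhibition of growth. The concentration for full growth arrest is given as TGI.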

Experiments:
Assay in all cases: NCI anticancer screen, dose series, 48 h
[1] = system: CAKI-1 renal
[2] = system: MOLT-4 leukemia
[3] = system: HT29 colon
[4] = system: SF-295 CNS
[5] = system: UACC-62 melanoma
[6] = system: BT-549 breast
[7] = system: HCC-2998 colon
[8] = system: U251 CNS
[9] = system: OVCAR-5 ovarian
[10] = system: SR leukemia
[11] = system: OVCAR-4 ovarian
[12] = system: HCT-15 colon
[13] = system: EKVX NSCLC
[14] = system: SK-OV-3 ovarian
[15] = system: SN12C renal
[16] = system: OVCAR-8 ovarian
[17] = system: UO-31 renal
[18] = system: HOP-62 NSCLC
[19] = system: K-562 leukemia
[20] = system: SK-MEL-28 melanoma
[21] = system: HOP-92 NSCLC
[22] = system: SK-MEL-2 melanoma
[23] = system: COLO 205 colon
[24] = system: IGROV1 ovarian
[25] = system: DU-145 prostate
[26] = system: SF-268 CNS
[27] = system: NCI-H522 lung
[28] = system: SW-620 colon
[29] = system: NCI-H23 lung
[30] = system: HCT-116 colon
[31] = system: HS 578T breast
[32] = system: MDA-MB-231 breast
[33] = system: MCF7 breast
[34] = system: KM12 colon
[35] = system: RXF 393 renal
[36] = system: NCI-H460 lung
[37] = system: ACHN renal
[38] = system: UACC-257 melanoma
[39] = system: M14 melanoma
[40] = system: A549 NSCLC
[41] = system: A498 renal
[42] = system: 786-0 renal
[43] = system: MDA-MB-435
[44] = system: LOX IMVI melanoma
[45] = system: MALME-3M melanoma
[46] = system: RPMI-8226 leukemia
[47] = system: TK-10 renal
[48] = system: NCI-H226 lung
[49] = system: HL-60(TB) leukemia
[50] = system: SK-MEL-5 melanoma
[51] = system: PC-3 prostate
[52] = system: OVCAR-3 ovarian
[53] = system: SNB-19 CNS
[54] = system: SF-539 CNS
[55] = system: CCRF-CEM leukemia
[56] = system: T-47D breast

COc1cc(-n2cncc2-c2ccc3ccccc3c2)cc(OC)c1OC
GI50 [1]: 37 nM
TGI [1]: > 100000 nM
GI50 [2]: 53.8 nM
TGI [2]: > 66900 nM
GI50 [3]: < 14.4 nM
TGI [3]: > 70600 nM
GI50 [4]: < 10 nM
TGI [4]: > 100000 nM
TGI [5]: > 54500 nM
GI50 [6]: 62.1 nM
TGI [6]: > 100000 nM
GI50 [7]: < 11.6 nM
TGI [7]: 29.7 nM
GI50 [8]: 23 nM
TGI [8]: 16700 nM
GI50 [9]: 48.4 nM
TGI [9]: 53400 nM
GI50 [10]: < 10 nM
TGI [10]: 10400 nM
TGI [11]: > 100000 nM
GI50 [12]: < 16.9 nM
TGI [12]: > 53200 nM
GI50 [13]: 65.7 nM
TGI [13]: > 100000 nM
GI50 [14]: 51.8 nM
TGI [14]: > 69400 nM
GI50 [15]: 1050 nM
TGI [15]: > 100000 nM
GI50 [16]: 54.6 nM
TGI [16]: > 100000 nM
GI50 [17]: 401 nM
TGI [17]: > 100000 nM
GI50 [18]: 39.1 nM
TGI [18]: 25100 nM
GI50 [19]: < 10 nM
TGI [19]: > 83400 nM
TGI [20]: > 100000 nM
GI50 [21]: 957 nM
TGI [21]: > 100000 nM
GI50 [22]: 30.9 nM
TGI [22]: 51800 nM
GI50 [23]: < 10 nM
TGI [23]: 391 nM
GI50 [24]: 87.2 nM
TGI [24]: > 38000 nM
GI50 [25]: 32.4 nM
TGI [25]: > 100000 nM
GI50 [26]: 26 nM
TGI [26]: > 59000 nM
GI50 [27]: < 10 nM
GI50 [28]: < 15.9 nM
TGI [28]: > 100000 nM
GI50 [29]: 25.5 nM
TGI [29]: 5910 nM
GI50 [30]: < 18.1 nM
TGI [30]: > 34600 nM
GI50 [31]: < 12.7 nM
TGI [31]: > 100000 nM
GI50 [32]: 59.5 nM
TGI [32]: > 57600 nM
GI50 [33]: < 10 nM
TGI [33]: > 100000 nM
GI50 [34]: < 10 nM
TGI [34]: > 100000 nM
GI50 [35]: 19.9 nM
TGI [35]: 28900 nM
GI50 [36]: < 17.9 nM
TGI [36]: > 100000 nM
TGI [37]: > 57200 nM
GI50 [38]: > 87000 nM
TGI [38]: > 100000 nM
GI50 [39]: 17.1 nM
TGI [39]: 5620 nM
GI50 [40]: 26.9 nM
TGI [40]: > 100000 nM
GI50 [41]: < 10 nM
TGI [41]: 1410 nM
GI50 [42]: 49.6 nM
TGI [42]: 18500 nM
GI50 [43]: < 10 nM
TGI [43]: > 100000 nM
GI50 [44]: 87.2 nM
TGI [44]: > 41800 nM
GI50 [45]: > 100000 nM
TGI [45]: > 100000 nM
GI50 [46]: 54.3 nM
TGI [46]: > 100000 nM
GI50 [47]: 33800 nM
TGI [47]: > 100000 nM
GI50 [48]: 2030 nM
TGI [48]: > 62000 nM
GI50 [49]: < 10 nM
TGI [49]: 1540 nM
GI50 [50]: < 10 nM
GI50 [51]: 15.8 nM
TGI [51]: > 100000 nM
GI50 [52]: < 17.9 nM
TGI [52]: > 100000 nM
GI50 [53]: 23.4 nM
TGI [53]: > 100000 nM
GI50 [54]: 18.4 nM
TGI [54]: 73400 nM
GI50 [55]: 34.4 nM
TGI [55]: > 100000 nM
GI50 [56]: > 100000 nM
TGI [56]: > 100000 nM
